Reference: patent US11286268B1, “EIF4E-inhibiting compounds and methods” (EFFECTOR THERAPEUTICS, INC., priority 2019, dated 2022)
pIC50: −log10 of the molar value. Read-outs that look alike come from different tables or passages of the source.

Target: recombinant eIF4E (Homo sapiens (Human), UniProt P06730)
Assay: Fluorescence polarization competition assay for eIF4E binding potency
Summary of the method: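 Competitive displacement format: compounds compete with a fluorescent m7GDP tracer (20 nM) for 75 nM recombinant eIF4E. Incubation is 30 min at room temperature, protected from light, with 1% DMSO. Polarization read gives IC50 over eight 3-fold concentrations.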

[1] = inhibition of eIF4E/EDA-m7GDP-ATTO-550 binding, calculated IC50 values, Table 4B, read-out: IC50
[2] = fluorescence polarization competition, 75 nM recombinant eIF4E, 20 nM EDA-m7GDP-ATTO-550, IC50 class, read-out: elF4E FP
[3] = inhibition of eIF4E/EDA-m7GDP-ATTO-550 binding by 50%, Table 4B calculated values, read-out: IC50

Sequence of recombinant eIF4E (P06730 whole entry): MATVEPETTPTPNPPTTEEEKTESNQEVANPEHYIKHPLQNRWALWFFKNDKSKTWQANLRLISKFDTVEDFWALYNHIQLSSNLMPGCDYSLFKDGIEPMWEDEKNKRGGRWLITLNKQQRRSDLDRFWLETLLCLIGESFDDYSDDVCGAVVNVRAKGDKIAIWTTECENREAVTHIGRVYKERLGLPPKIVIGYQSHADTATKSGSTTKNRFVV

Compound | pIC50 [1] | pIC50 [2] | pIC50 [3]
Cc1nc2cnc(N3CCN(CCF)C4(CC4)C3)c(C#N)c2c(=O)n1CCOc1ccc(Cl)cc1-c1ccnc2c(C(=O)O)csc12 [compound 1338] | 8.02 | – | –
Cc1cc(-c2cc(Cl)ccc2OCCn2c(C)nc3cc(C(F)(F)F)c(-c4nc(C(F)F)ccc4F)c(C#N)c3c2=O)c2scc(C(=O)O)c2n1 [compound 995] | – | > 7.30 | 7.80
CCN(c1ncc2nc(C)n(CC#Cc3ccc(Cl)cc3-c3ccnc4c(C(=O)NS(=O)(=O)c5cccnc5)csc34)c(=O)c2c1C#N)C1CCN(C2COC2)CC1 [compound 1741] | 7.96 | – | –
O=C(O)c1cccc(-c2cc(Cl)ccc2OCCn2cnc3ccncc3c2=O)c1 [compound 13] | – | < 6.00 | 5.97
Cc1nc2cnc(N3CCN(C4(CC(F)(F)F)CC4)CC3)c(C#N)c2c(=O)n1CCOc1ccc(Cl)cc1-c1ccnc2c(C(=O)O)csc12 [compound 1361] | 7.67 | – | –
Cc1nc2cnc(N(C)C3CCN(C4CC(F)(F)C4)CC3)c(C#N)c2c(=O)n1CC#Cc1ccc(Cl)cc1-c1ccnc2c(C(=O)NS(C)(=O)=O)csc12 [compound 1108] | – | > 7.30 | 7.54
Cc1nc2c(N3CCN(CC(F)F)C4CC43)ncc(C#N)c2c(=O)n1CCOc1ccc(Cl)cc1-c1ccnc2c(C(=O)O)csc12 (centres unmarked) [compound 818] | – | > 7.30 | 7.88
CNS(=O)(=O)c1ccc(C#N)c2c(=O)n(CCOc3ccc(Cl)cc3-c3ccnc4c(C(=O)O)csc34)c(C)nc12 [compound 238] | – | > 7.30 | 7.42
Cc1cc(-c2cc(Cl)ccc2OCCn2c(C)nc3cc(C(F)(F)F)c(N4CCC(C)CC4)nc3c2=O)c2scc(C(=O)O)c2n1 [compound 800] | – | > 7.30 | 7.49
Cc1nc2cnc(N(C)C3CCN(CC4(F)CCC4)CC3)c(C#N)c2c(=O)n1CC#Cc1ccc(Cl)cc1-c1ccnc2c(C(=O)O)csc12 [compound 1174] | – | > 7.30 | 8.03
Cc1c(C(=O)O)ccnc1-c1cc(Cl)ccc1OCCn1cnc2cnc(C#N)cc2c1=O [compound 115] | – | < 6.00 | < 5.52
N#Cc1cc(C(F)(F)F)cc2ncn(CCOc3ccc(Cl)cc3-c3ccnc4c(C(=O)O)csc34)c(=O)c12 [compound 1899] | 7.79 | – | –
Cc1cc(-c2cc(Cl)ccc2C#CCn2c(C)nc3c(C)nc(N4CCN(C)CC4)c(C#N)c3c2=O)c2scc(C(=O)O)c2n1 [compound 450] | – | > 7.30 | 8.11
N#Cc1cc2c(=O)n(CCOc3ccc(Cl)cc3-c3ccc(OC(F)F)c(C(=O)O)c3)cnc2cn1 [compound 111] | – | 6.00 to 7.30 | 6.36
Cc1cc(-c2cc(Cl)ccc2OCCn2c(C)nc3cc(C(F)(F)F)c(-c4nc(C)ncc4F)c(C#N)c3c2=O)c2scc(C(=O)O)c2n1 [compound 964] | – | > 7.30 | 8.48
CC(C)(C)c1cc(C(=O)O)cc(-c2cc(Cl)ccc2OCCn2cnc3cnc(C#N)cc3c2=O)c1 [compound 105] | – | < 6.00 | < 5.52
Cc1cc(-c2cc(Cl)ccc2OCCn2c(C)nc3cc(C(F)(F)F)c(N4CCN(C)CC4)c(C#N)c3c2=O)c2sc(C)c(C(=O)O)c2n1 [compound 1416] | 7.90 | – | –
Cc1cc(-c2cc(Cl)ccc2OCCn2c(C)nc3cc(C(F)(F)F)c(CN4CCNCC4)c(C#N)c3c2=O)c2scc(C(=O)O)c2n1 [compound 649] | – | > 7.30 | 7.82
Cc1nc2cnc(C3CCC(N(C)CC(F)(F)F)C3)c(C#N)c2c(=O)n1CCOc1ccc(Cl)cc1-c1ccnc2c(C(=O)O)csc12 (centres unmarked) [compound 1427] | 7.84 | – | –
Cc1nc2cc(C(F)(F)F)cc(C#N)c2c(=O)n1CCOc1ccc(Cl)cc1-c1ccnc2c(C(=O)O)coc12 [compound 325] | – | 6.00 to 7.30 | 7.28

Compound | pIC50 [1] | pIC50 [2] | pIC50 [3]
Cc1nc2cnc(N3CC4(CC(N(C)C5CC5)C4)C3)c(C#N)c2c(=O)n1CCOc1ccc(Cl)cc1-c1ccnc2c(C(=O)O)csc12 [compound 829] | – | > 7.30 | 8.34
Cc1nc2cnc(N(C)C3CCCCC3)c(C#N)c2c(=O)n1CC#Cc1ccc(Cl)cc1-c1ccnc2c(C(=O)O)csc12 [compound 1120] | – | > 7.30 | 8.02
Cc1cc(-c2cc(Cl)ccc2OCCn2c(C)nc3cc(C(F)(F)F)c(-c4ccns4)c(C#N)c3c2=O)c2scc(C(=O)O)c2n1 [compound 348] | – | > 7.30 | 7.81
COCC1(N2CCN(c3ncc4nc(C)n(CC#Cc5ccc(Cl)cc5-c5ccnc6c(C(=O)O)csc56)c(=O)c4c3C#N)CC2)CC1 [compound 1465] | 7.63 | – | –
Cc1cc(-c2cc(Cl)ccc2OCCn2c(C)nc3cc(C(F)(F)F)c(N4CCN(C)C(C(F)(F)F)C4)c(C#N)c3c2=O)c2sc(C)c(C(=O)O)c2n1 (centres unmarked) [compound 1207] | 6.92 | 6.00 to 7.30 | –
N#Cc1cccc2nc(C(F)F)n(CCOc3ccc(Cl)cc3-c3cccc(C(=O)O)c3)c(=O)c12 [compound 1973] | 7.84 | – | –
Cc1c(C(F)(F)F)cc2nc(C)n(CC#Cc3ccc(Cl)cc3-c3cn(C)c(=O)c4c(C(=O)O)csc34)c(=O)c2c1C#N [compound 754] | – | > 7.30 | 7.76
Cc1nc2cc(C(F)(F)F)cc(C#N)c2c(=O)n1CCOc1ccc(Cl)cc1-c1ncnc2c(C(=O)O)csc12 [compound 215] | – | 6.00 to 7.30 | –
Cc1nc2cc(C(F)(F)F)cc([N+](=O)[O-])c2c(=O)n1CCOc1ccc(Cl)cc1-c1ccnc2c(C(=O)O)csc12 [compound 271] | – | > 7.30 | 7.88
Cc1cc(-c2cc(Cl)ccc2OCCn2c(C)nc3cnc(N4CCN(C)CC4)cc3c2=O)c2scc(C(=O)O)c2n1 [compound 810] | – | > 7.30 | –
Cc1nc2cc(C(F)(F)F)cc(C(F)(F)F)c2c(=O)n1CCOc1ccc(Cl)cc1-c1ccnc2c(C(=O)O)csc12 [compound 219] | – | 6.00 to 7.30 | 6.96
Cc1cc(-c2cc(Cl)ccc2C#CCn2c(C)nc3cc(C(F)(F)F)c(Cl)c(C#N)c3c2=O)c2scc(C(=O)O)c2n1 [compound 561] | – | 6.00 to 7.30 | 7.25
Cc1cc(-c2cc(Cl)ccc2OCCn2c(C)nc3cnc(CCF)c(C#N)c3c2=O)c2scc(C(=O)O)c2n1 [compound 1064] | – | > 7.30 | 7.79
Cc1cc(-c2cc(Cl)ccc2OCCn2c(C)nc3cc(C(F)(F)F)c(C(=O)N(C)C)c(C#N)c3c2=O)c2scc(C(=O)O)c2n1 [compound 789] | – | > 7.30 | 8.05
Cc1nc2cnc(N3CCN(CC4CC4)CC3)c(C#N)c2c(=O)n1CC#Cc1ccc(Cl)cc1-c1ccnc2c(C(=O)O)csc12 [compound 895] | – | > 7.30 | 7.64
Cc1nc2cnc(N(C)C3CCN(CC(C)(F)F)CC3)c(C#N)c2c(=O)n1CC#Cc1ccc(Cl)cc1-c1ccnc2c(C(=O)NS(=O)(=O)c3ccc(C(F)(F)F)cn3)csc12 [compound 1679] | 7.53 | – | –
Cc1cc(-c2cc(Cl)ccc2OCCn2c(C)nc3c(F)cc(C(F)F)c(C#N)c3c2=O)c2scc(S(=O)(=O)O)c2n1 [compound 488] | – | > 7.30 | –
Cc1cc(-c2cc(Cl)ccc2OCCn2c(C)nc3cc(C(F)(F)F)c(S(C)(=O)=O)nc3c2=O)c2scc(C(=O)O)c2n1 [compound 782] | – | > 7.30 | 8.39
Cc1cc(-c2cc(Cl)ccc2OCCn2c(C)nc3cc(CN(C)C)c(OC(F)F)c(C#N)c3c2=O)c2scc(C(=O)NS(C)(=O)=O)c2n1 [compound 451] | – | > 7.30 | 7.44
N#Cc1cccc2c1c(=O)n(CCOc1ccc(Cl)cc1-c1ccnc3c(C(=O)O)csc13)c1ccccc21 [compound 657] | – | > 7.30 | 7.34
